Test results: article PMC7339578, “Multiple circulating alkaloids and saponins from intravenous Kang-Ai injection inhibit human cytochrome P450 and UDP-glucuronosyltransferase isozymes: potential drug–drug interactions” (Chinese Medicine, 2020)
Values joined by “and” are separate entries in the source; they are usually repeats but may differ in a detail not shown here. Equal entries are not always repeated. Where two headings read alike, the source gives them in different places.

How the values were obtained:
CYP2A6 = target: T1, CYP2A6 (Homo sapiens, UniProt P11509); assay: Inhibition of recombinant CYP2A6 (probe coumarin); format: in vitro ADME
T1 sequence (P11509 1-494): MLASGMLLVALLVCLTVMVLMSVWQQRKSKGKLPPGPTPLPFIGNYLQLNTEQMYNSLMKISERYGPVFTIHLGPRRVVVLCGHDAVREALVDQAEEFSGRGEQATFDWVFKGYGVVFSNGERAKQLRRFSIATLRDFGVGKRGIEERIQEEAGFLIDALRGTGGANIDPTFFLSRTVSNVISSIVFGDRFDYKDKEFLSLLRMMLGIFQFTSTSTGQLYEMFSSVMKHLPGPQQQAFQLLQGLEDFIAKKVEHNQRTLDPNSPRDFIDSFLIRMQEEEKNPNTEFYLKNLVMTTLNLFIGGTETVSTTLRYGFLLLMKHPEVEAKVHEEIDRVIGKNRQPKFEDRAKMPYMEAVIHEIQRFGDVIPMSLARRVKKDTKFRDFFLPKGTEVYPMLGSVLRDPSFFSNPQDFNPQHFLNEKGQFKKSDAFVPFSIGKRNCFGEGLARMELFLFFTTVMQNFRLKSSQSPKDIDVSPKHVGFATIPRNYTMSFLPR
Method: (§1) In this study, phenacetin (100 μM), coumarin (100 μM), bupropion (100 μM), paclitaxel (60 μM), tolbutamide (200 μM), mephenytoin (100 μM), chlorzoxazone (200 μM) and nifedipine (40 μM) have been used as the probe substrates for CYP1A2, 2A6, 2B6, 2C8, 2C9, 2C19, 2E1 and 3A4, respectively.

[1] = Biliary (hepatobiliary) excretion in rats after a 30-min infusion of Kang-Ai injection; format: in vivo, Sprague–Dawley rats; details: for fe-B,0–12h (fraction of dose excreted into bile): rat bile 0–12 h; for fe-B,0–12h (fraction of dose excreted into bile) / detection in bile: Kang-Ai injection 6 mL/kg iv; for detection in bile: rat bile
Outline: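 Urine collected in metabolic cages at 0–4, 4–8, 8–12 h and bile at 0–3, 3–6, 6–9, 9–12 h after infusion start, weighed and frozen at −80 °C. Non-compartmental analysis; CLR and CLB as cumulative urinary or biliary amount divided by plasma AUC0-∞, fe-U and fe-B as cumulative amount/dose; mean ± SD (n = 3).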

[2] = Plasma pharmacokinetics in rats after a 30-min intravenous infusion of Kang-Ai injection; format: in vivo, Sprague–Dawley rats
Outline: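 Fasted male Sprague–Dawley rats (250 ± 20 g) got a single 30-min tail-vein infusion of Kang-Ai injection at 6 mL/kg. Jugular blood was sampled from 5 min to 12 h for plasma. Parameters came from non-compartmental analysis (trapezoidal AUC), n = 3.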

CYP2C19 = CYP2C19 (Homo sapiens, UniProt P33261); assay: Inhibition of recombinant CYP2C19 (probe mephenytoin); format: in vitro ADME
Method: as §1

CYP2C8 = target: T2, CYP2C8 (Homo sapiens, UniProt P10632); assay: Inhibition of recombinant CYP2C8 (probe paclitaxel); format: in vitro ADME
T2 sequence (P10632 1-490): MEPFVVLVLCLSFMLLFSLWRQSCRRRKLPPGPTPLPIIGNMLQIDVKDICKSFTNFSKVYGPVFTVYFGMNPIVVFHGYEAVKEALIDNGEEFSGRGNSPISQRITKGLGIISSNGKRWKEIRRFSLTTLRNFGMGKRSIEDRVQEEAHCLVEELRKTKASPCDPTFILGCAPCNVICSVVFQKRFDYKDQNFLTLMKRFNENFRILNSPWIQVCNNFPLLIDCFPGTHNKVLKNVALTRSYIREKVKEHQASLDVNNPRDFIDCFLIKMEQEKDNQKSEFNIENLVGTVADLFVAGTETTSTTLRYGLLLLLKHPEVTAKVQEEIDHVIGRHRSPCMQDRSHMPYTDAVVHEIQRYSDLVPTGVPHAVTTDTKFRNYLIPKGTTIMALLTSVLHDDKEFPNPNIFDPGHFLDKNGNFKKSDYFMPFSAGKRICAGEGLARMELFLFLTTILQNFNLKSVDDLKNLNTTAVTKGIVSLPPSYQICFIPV
Method: as §1

[3] = recombinant isozyme, mean ± SD of triplicate, unit not given (IC50 classes in μM), read-out: IC50 towards CYP2A6
[4] = male, Sprague-Dawley, plasma, rat, 30-min iv infusion of Kang-Ai injection 6 mL/kg, Table 1 unit, read-out: CLtot, p (converted)
[5] = male, Sprague-Dawley, plasma, rat, 30-min iv infusion of Kang-Ai injection 6 mL/kg, Table 1 unit, read-out: VSS
[6] = male, Sprague-Dawley, rat plasma, 30-min iv infusion of Kang-Ai injection 6 mL/kg, read-out: Cmax
[7] = male, Sprague-Dawley, rat plasma, 30-min iv infusion of Kang-Ai injection 6 mL/kg, read-out: t1/2 (converted)
[8] = recombinant isozyme, mean ± SD of triplicate, unit not given (IC50 classes in μM), read-out: IC50 towards CYP2C19
[9] = recombinant isozyme, mean ± SD of triplicate, unit not given (IC50 classes in μM), read-out: IC50 towards CYP2C8
[10] = male, Sprague-Dawley, rat, in vivo, iv

CYP2C19, sequence (P33261 whole entry): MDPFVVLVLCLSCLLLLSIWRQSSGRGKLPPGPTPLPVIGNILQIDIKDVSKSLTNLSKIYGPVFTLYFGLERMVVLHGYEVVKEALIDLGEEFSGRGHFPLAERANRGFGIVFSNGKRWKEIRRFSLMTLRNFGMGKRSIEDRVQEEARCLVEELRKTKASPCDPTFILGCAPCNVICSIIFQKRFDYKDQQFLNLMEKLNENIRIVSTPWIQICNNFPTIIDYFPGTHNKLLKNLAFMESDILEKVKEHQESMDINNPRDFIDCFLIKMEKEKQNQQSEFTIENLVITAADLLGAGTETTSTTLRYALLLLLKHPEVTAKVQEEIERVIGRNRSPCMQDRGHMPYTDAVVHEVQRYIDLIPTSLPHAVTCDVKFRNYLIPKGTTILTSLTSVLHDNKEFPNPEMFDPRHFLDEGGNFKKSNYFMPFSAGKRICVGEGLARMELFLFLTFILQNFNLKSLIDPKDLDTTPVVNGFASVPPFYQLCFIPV

SMILES: CC(C)=CCC[C@](C)(O[C@@H]1O[C@H](CO)[C@@H](O)[C@H](O)[C@H]1O)[C@H]1CC[C@]2(C)[C@@H]1[C@H](O)C[C@@H]1[C@@]3(C)CC[C@H](O)C(C)(C)[C@@H]3[C@@H](O[C@@H]3O[C@H](CO)[C@@H](O)[C@H](O)[C@H]3O[C@@H]3O[C@@H](C)[C@H](O)[C@@H](O)[C@H]3O)C[C@]12C [Compound C9, Ginsenoside Re]
- IC50 (CYP2A6; [3]): > 100 µM
- fe-B,0–12h (fraction of dose excreted into bile) [1]: 28.27 ± 4.16%
- clearance [2, 4]: 2.61 mL/min
- Vd [2, 5]: 0.101 ± 0.027 L
- Cmax [2, 6]: 1340 ± 88.1 nM
- half-life [2, 7]: 1.07 ± 0.84 h
- IC50 (CYP2C19; [8]): > 100 µM
- inhibition type (smallest AIC and SC) (CYP2C8; CYP2C8): mixed-type inhibition
- Ki (CYP2C8; CYP2C8, competitive model): 8.2 ± 1.1 µM
- Ki (CYP2C8; CYP2C8, mixed-type model): 13.3 ± 2.9 µM
- α (CYP2C8; CYP2C8, mixed-type model): 4.2 ± 2.3
- Ki (CYP2C8; CYP2C8, noncompetitive model): 26.5 ± 2.2 µM
- Cmax/Ki ([I]/Ki) (CYP2C8; CYP2C8, selected model, rat plasma Cmax): 0.1
- IC50 (CYP2C8; paclitaxel 60 μM, read-out: IC50 towards CYP2C8): 24 µM
- IC50 (CYP2C8; [9]): 24 ± 10.7 µM

SMILES: O=C1CCC[C@@H]2[C@H]3CCCN4CCC[C@@H](CN12)[C@@H]34 [Compound A1, Matrine]
- IC50 (CYP2A6): > 100 µM
- fe-B,0–12h (fraction of dose excreted into bile) [1]: 36.55% and 36.55 ± 4.24%
- clearance [2, 4]: 0.0263 mL/min
- Vd [2, 5]: 0.00985 ± 0.00247 L
- clearance ([2]; male, Sprague-Dawley, plasma, rat, Kang-Ai injection 6 mL/kg iv, read-out: CLtot, p (converted)): 1.58 mL/h/kg
- Vd ([2]; male, Sprague-Dawley, plasma, rat, Kang-Ai injection 6 mL/kg iv, read-out: VSS (Vd)): 0.00985 L/kg
- AUC(0-t) ([2]; male, Sprague-Dawley, rat, plasma, iv, 6 mL/kg, rat plasma, 30-min iv infusion of Kang-Ai injection 6 mL/kg, unit per footnote # for matrine and oxymatrine, read-out: AUC0–12h): 68.6 ± 9.85 µM·h
- half-life [2, 7]: 4.33 ± 2.18 h
- Cmax ([2]; male, Sprague-Dawley, rat plasma, 30-min iv infusion of Kang-Ai injection 6 mL/kg, unit per footnote # for matrine and oxymatrine, read-out: Cmax): 15100 ± 3580 nM
- IC50 (CYP2C19): > 100 µM
- IC50 (CYP2C8): > 100 µM

SMILES: CC(C)=CCC[C@](C)(O[C@@H]1O[C@H](CO[C@@H]2O[C@H](CO)[C@@H](O)[C@H](O)[C@H]2O)[C@@H](O)[C@H](O)[C@H]1O)[C@H]1CC[C@]2(C)[C@@H]1[C@H](O)C[C@@H]1[C@@]3(C)CC[C@H](O[C@@H]4O[C@H](CO)[C@@H](O)[C@H](O)[C@H]4O[C@@H]4O[C@H](CO)[C@@H](O)[C@H](O)[C@H]4O)C(C)(C)[C@@H]3CC[C@]12C [Compound D5, Ginsenoside Rb1]
- IC50 (CYP2A6; [3]): > 100 µM
- detection in bile [1]: not detected in bile
- clearance [2, 4]: 0.103 mL/min
- Vd [2, 5]: 0.047 ± 0.0199 L
- Cmax [2, 6]: 497 ± 75.1 nM
- half-life [2, 7]: 7.22 ± 7.03 h
- IC50 (CYP2C19; [8]): > 100 µM
- IC50 (CYP2C8; [9]): > 100 µM

SMILES: CC(C)=CCC[C@](C)(O)[C@H]1CC[C@]2(C)[C@@H]1[C@H](O)C[C@@H]1[C@@]3(C)CC[C@H](O)C(C)(C)[C@@H]3[C@@H](O[C@@H]3O[C@H](CO)[C@@H](O)[C@H](O)[C@H]3O[C@@H]3O[C@H](CO)[C@@H](O)[C@H](O)[C@H]3O)C[C@]12C [Compound C7, Ginsenoside Rf]
- IC50 (CYP2A6; [3]): > 100 µM
- fe-B,0–12h (fraction of dose excreted into bile) [1]: 13.12 ± 1.68%
- Cmax [2, 10]: 943 ± 172 nM
- clearance [2, 10]: 1.82 mL/min
- half-life [2, 10]: 0.63 ± 0.31 h
- IC50 (CYP2C19; [8]): > 100 µM
- IC50 (CYP2C8; [9]): > 100 µM

SMILES: O=C1CCC[C@@H]2[C@H]3CCC[N+]4([O-])CCC[C@@H](CN12)[C@@H]34 (stereo partly shown) [Compound A3, Oxymatrine]
- IC50 (CYP2A6): > 100 µM
- CLB (hepatobiliary clearance) [1, 10]: 31.95 ± 4.76 mL/h
- Cmax [2, 10]: 423000 ± 55500 nM
- Vd [2, 10]: 0.22 L/kg
- clearance [2, 10]: 1.86 mL/min/kg and 1.86 mL/min
- half-life [2, 10]: 2.73 ± 1.16 h
- IC50 (CYP2C19): > 100 µM
- IC50 (CYP2C8; IC50 towards CYP2C8, recombinant isozyme, mean ± SD of triplicate, unit not given (IC50 classes in μM)): > 100 µM

SMILES: CC(C)=CCC[C@](C)(O[C@@H]1O[C@H](CO)[C@@H](O)[C@H](O)[C@H]1O)[C@H]1CC[C@]2(C)[C@@H]1[C@H](O)C[C@@H]1[C@@]3(C)CC[C@H](O[C@@H]4O[C@H](CO)[C@@H](O)[C@H](O)[C@H]4O[C@@H]4O[C@H](CO)[C@@H](O)[C@H](O)[C@H]4O)C(C)(C)[C@@H]3CC[C@]12C [Compound D2, Ginsenoside Rd]
- IC50 (CYP2A6; [3]): > 100 µM
- fe-B,0–12h (fraction of dose excreted into bile) [1]: 5.55% and 5.55 ± 1.02%
- Vd ([2]; male, Sprague-Dawley, plasma, rat, 30-min iv infusion of Kang-Ai injection 6 mL/kg, Table 1 unit): 0.0357 ± 0.0114 L/kg
- clearance [2, 4]: 0.0972 mL/min
- Cmax [2, 6]: 766 ± 57.9 nM
- half-life [2, 7]: 5.84 ± 3.13 h
- IC50 (CYP2C19; [8]): > 100 µM
- IC50 (CYP2C8; [9]): > 100 µM

SMILES: CC(C)=CCC[C@](C)(O[C@@H]1O[C@H](CO[C@@H]2O[C@@H](CO)[C@H](O)[C@H]2O)[C@@H](O)[C@H](O)[C@H]1O)[C@H]1CC[C@]2(C)[C@@H]1[C@H](O)C[C@@H]1[C@@]3(C)CC[C@H](O[C@@H]4O[C@H](CO)[C@@H](O)[C@H](O)[C@H]4O[C@@H]4O[C@H](CO)[C@@H](O)[C@H](O)[C@H]4O)C(C)(C)[C@@H]3CC[C@]12C [Compound D3, Ginsenoside Rc]
- IC50 (CYP2A6; [3]): > 100 µM
- detection in bile [1]: not detected in bile
- clearance [2, 4]: 0.0933 mL/min
- Vd [2, 5]: 0.0378 ± 0.0102 L
- Cmax [2, 6]: 877 ± 39.5 nM
- half-life [2, 7]: 6.29 ± 3.17 h
- IC50 (CYP2C19; [8]): > 100 µM
- IC50 (CYP2C8; [9]): > 100 µM

SMILES: CC(C)(O)[C@@H]1CC[C@](C)([C@H]2[C@@H](O)C[C@@]3(C)[C@@H]4C[C@H](O[C@@H]5O[C@H](CO)[C@@H](O)[C@H](O)[C@H]5O)[C@H]5C(C)(C)[C@@H](O[C@@H]6OC[C@@H](O)[C@H](O)[C@H]6O)CC[C@@]56C[C@@]46CC[C@]23C)O1 [Compound B2, Astragaloside IV]
- IC50 (CYP2A6; [3]): > 100 µM
- t1/2 ([2]; rat plasma, 30-min iv infusion of Kang-Ai injection 6 mL/kg): 1.64 ± 0.26 h
- Cmax ([2]; rat plasma, 30-min iv infusion of Kang-Ai injection 6 mL/kg, read-out: Cmax): 2360 ± 252 nM
- VSS (Vd) ([2]; rat, Kang-Ai injection 6 mL/kg iv): < 0.1 L/kg
- IC50 (CYP2C19; [8]): > 100 µM
- IC50 (CYP2C8; [9]): > 100 µM

SMILES: CC(C)=CCC[C@](C)(O[C@@H]1O[C@H](CO)[C@@H](O)[C@H](O)[C@H]1O)[C@H]1CC[C@]2(C)[C@@H]1[C@H](O)C[C@@H]1[C@@]3(C)CC[C@H](O)C(C)(C)[C@@H]3[C@@H](O[C@@H]3O[C@H](CO)[C@@H](O)[C@H](O)[C@H]3O)C[C@]12C [Compound C6, Ginsenoside Rg1]
- IC50 (CYP2A6; [3]): > 100 µM
- fe-B,0–12h (fraction of dose excreted into bile) [1]: 20.71 ± 3.62%
- clearance [2, 4]: 2.61 mL/min
- Vd [2, 5]: 0.144 ± 0.0642 L
- Cmax [2, 6]: 1570 ± 175 nM
- half-life [2, 7]: 1.2 ± 1.23 h
- IC50 (CYP2C19; [8]): > 100 µM
- IC50 (CYP2C8; [9]): > 100 µM
